For series [1] the following is noted: Japanese Patent Laid-Open 108027/1977 and 70428/1979; cited from earlier work.
Series [2] is described as follows: Clinical Example 1: treatment of cachexia patient with 4,6-O-benzylidene-D-glucose. The class given is in vivo, human. The following applies: 1,200 mg i.v. once a day; for body weight: before: 29 kg. From the text:
Patient
Diagnosis: Cancer in right ovary, Cachexia caused by metastasis of cancer to peritoneum and liver
Although the adbomen of the patient was opened by an abdominal operation, it was impossible to remove the diseased portions and thus the abdomen was closed without extracting the affected portions. The patient could eat very little and thus was supplied with nutritive substances by instillations every day. The body weight of the patient decreased to 29 kg, and they were confined to bed.

Series [3] is described as follows: finding of effectiveness in retarding and reducing cachexia. The class given is in vivo. To be noted: benzaldehyde and/or 4,6-O-benzylidene-D-glucose.
The next series is described as follows: in vivo. To be noted: rat, sc.
In a further series the test system is rats. The series can be described thus: acute toxicity (LD50) by subcutaneous injection of rats. To be noted: acute toxicity, rats, subcutaneous injection.
Series [4] can be described thus: prior chemotherapy of the patient of Clinical Example 1, adverse reactions. The following applies: chemotherapy with mitomycin, 5-fluorouracil and cytarabine together, stopped after three weeks.
Description: (§1) Chemotherapy was tried to administering mitomycin, 5-fluorouracil and cytarabine. […] For these reasons, chemotherapy was stopped after three weeks.
For series [5] the following is noted: human, in vivo.
Description: as §1
The nature of series [6]: acute toxicity (LD50) by subcutaneous injection of rats. The following applies: rat, in vivo, sc.
The nature of series [7]: Clinical Example 3: treatment of cachexia patient with benzaldehyde. The class given is in vivo, human. The following applies: for Precipitation of Blood: before dosage 78; for Glutamic Acid Pyruvic Acid Transaminase (GPT): before dosage 98; for Glutamic Acid Oxaloacetic Acid Transaminase (GOT): before dosage 120; for α-fetoprotein (AFP): before dosage 20,000. From the text: Patient
Diagnosis: Symptoms of cachexia due to lung cancer (the type of cancerous tissue not being specified)
Through CT scan and echo examinations, a total of four tumors were observed, one having the dimensions of 7 cm×7 cm and each of the other three metastasized tumors having a diameter of about 1 cm. Severe symptoms due to cachexia were found.
First Day: The symptoms due to cachexia were growing worse.

Where [8] appears, read: 25 mg tablets, 5 tablets 4 times a day, three months.

This is an account of results in patent US4778785A, “Pharmaceutical composition for retarding and reducing cachexia” (Kaken Pharmaceutical Co., Ltd., priority 1985, dated 1988).

Like-named read-outs stand apart in the source and are kept apart here.

A word on the LD50: it is the dose expected to kill half of the subjects tested. High values mean lower toxicity, low ones greater toxicity. Consider `OC1O[C@@H]2COC(c3ccccc3)O[C@H]2[C@H](O)[C@H]1O` (stereo partly drawn) [4,6-O-Benzylidene-D-glucose, 4,6-O-benzylidene-D-glucose], for which the carcinostatic function result in series [1] is “exhibit carcinostatic functions”. Besides, in series [2] (eighth day), the nausea result was “Nausea disappeared”. Further, the food intake result in series [2] (eighth day, before: could eat very little) is “the patient could take meals”. This compound came in with a body weight in series [2] (eighty-fifth day) of 35 kg. For the same compound, in [2] (fifty-sixth day), the “cancer in other portions” value is recorded as “No change was observed”, the “cancer of the liver (left)” value is given as “slightly reduced”, the capability of work result was “capable of doing light work” and the symptoms of cachexia result is recorded as “disappeared completely”. For the same compound, in series [2] (fifty-sixth day), the body weight was determined as 31 kg. Besides, in series [2] (nineteenth day, before: confined to bed), the mobility entry is reported as “The patient could sit up in bed”. Besides, in series [2] (thirtieth day), the cachexia symptoms entry is on record as “cachexia symptoms were alleviated” and the mobility result is given as “the patient could walk”. Also, in [2] (thirtieth day, CT scan), the “dimensions of the tumor” value is “the dimensions of the tumor had not been reduced”. The effect on cachexia result in series [3] was “effective in retarding and reducing cachexia”. This compound also came in with an LD50 in “in vivo” of 4000 mg/kg. Also, the “toxicity” value in the series on rats was “extremely low toxicities”.
As to `Nc1ccn([C@@H]2O[C@H](CO)[C@@H](O)[C@@H]2O)c(=O)n1` [cytarabine], in series [4], the adverse reactions entry is “intensive adverse reactions, such as anorexia, nausea and Leukopenia”; the cachexia under chemotherapy result is “the cachexia grew worse and worse”.
Turning to `O=c1[nH]cc(F)c(=O)[nH]1` [5-fluorouracil], the adverse reactions result in series [5] is “intensive adverse reactions, such as anorexia, nausea and Leukopenia”. For the same compound, in [4], the cachexia under chemotherapy result is “the cachexia grew worse and worse”.
`O=Cc1ccccc1` [Benzaldehyde]: the carcinostatic function result in series [1] was “exhibit carcinostatic functions”. Further, in [3], the effect on cachexia entry is “effective in retarding and reducing cachexia”. The same compound had a median lethal dose (LD50) in series [6] of 5000 mg/kg. Also, the “toxicity” value in the series with rats is “extremely low toxicities”. In [7] (25 mg benzaldehyde tablets, 5 tablets 4 times a day, one month), the appetite entry is given as “the patient recovered their appetite”. Besides, the “values of AFP, GOT and GPT” value in [7] (25 mg tablets, 5 tablets 4 times a day, monthly) is “lowered favorably every month unitl they reached normal levels”. The “body weight” value in series [7] (setting [8]) was “began to increase”; in series [7] (one month dosage, before dosage 46), 46 kg; in [7] (three month dosage, before dosage 46), 47 kg; in series [7] (two month dosage, before dosage 46) it was 46 kg. In series [7] (setting [8]), the “symptoms due to cachexia” value is on record as “Almost all of the symptoms due to cachexia disappeared”. The “Precipitation of Blood” value in [7] (one month dosage) was found to be 60; in [7] (three month dosage) it was 40; in series [7] (two month dosage) it was 48. Further, the “Glutamic Acid Pyruvic Acid Transaminase (GPT)” value in [7] (one month dosage) came to 70; in series [7] (three month dosage), 35; in series [7] (two month dosage), 40. Besides, the figures for the “Glutamic Acid Oxaloacetic Acid Transaminase (GOT)” value in [7] (one month dosage), in [7] (three month dosage) and in [7] (two month dosage) were 87, 38 and 72, respectively. Moreover, the entries for the “α-fetoprotein (AFP)” value in series [7] (one month dosage), in series [7] (three month dosage) and in [7] (two month dosage) were 15,000 ng/ml, 2,200 ng/ml and 7,700 ng/ml, respectively.
On to `CO[C@@]12[C@H](COC(N)=O)C3=C(C(=O)C(C)=C(N)C3=O)N1C[C@@H]1N[C@@H]12` [mitomycin], for which, in [4], the adverse reactions result was “intensive adverse reactions, such as anorexia, nausea and Leukopenia”; the cachexia under chemotherapy result is “the cachexia grew worse and worse”.
